Tests used:
UGT2B7 = target: T1, UGT2B7 (Homo sapiens, UniProt P16662); assay: Inhibition of recombinant UGT-catalyzed 4-MU glucuronidation; assay type: biochemical; settings: pH 7.4, probe 4-methylumbelliferone (4-MU), 350 μM, 100 μM compound, 4-MU probe substrate, negative = activation
T1 construct: purchased BD Gentest Corp. (Woburn, MA, USA); host or cells: baculovirus-infected insect cells
T1 sequence (P16662 24-529): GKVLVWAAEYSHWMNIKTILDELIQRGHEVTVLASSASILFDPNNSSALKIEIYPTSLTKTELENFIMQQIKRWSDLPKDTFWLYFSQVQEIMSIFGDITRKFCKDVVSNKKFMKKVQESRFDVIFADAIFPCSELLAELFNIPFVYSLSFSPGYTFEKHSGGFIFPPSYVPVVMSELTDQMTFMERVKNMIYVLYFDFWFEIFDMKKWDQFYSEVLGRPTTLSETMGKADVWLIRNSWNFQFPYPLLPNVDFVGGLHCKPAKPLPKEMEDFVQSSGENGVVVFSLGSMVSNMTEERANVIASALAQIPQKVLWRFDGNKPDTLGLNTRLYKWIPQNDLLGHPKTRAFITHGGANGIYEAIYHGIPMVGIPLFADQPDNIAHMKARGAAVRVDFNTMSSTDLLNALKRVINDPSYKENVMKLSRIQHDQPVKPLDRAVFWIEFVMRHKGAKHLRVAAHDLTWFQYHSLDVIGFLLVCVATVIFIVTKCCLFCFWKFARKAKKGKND
Description: (§1) Sigma-Aldrich (St Louis, MO, USA) provided the following constituents in the incubation mixture: 4-methylumbelliferone (4-MU), 4-methylumbelliferone-β-D-glucuronide (4-MUG), Tris-HCl, 7-hydroxycoumarin, and uridine-diphosphoglucuronic acid (UDPGA) (trisodium salt). All other compounds were of high-performance liquid chromatography (HPLC) grade or of the highest grade commercially available. For enzyme sources, recombinant UGT isoforms expressed in baculovirus-infected insect cells were purchased from BD Gentest Corp. (Woburn, MA, USA), including UGT1A1, 1A3, 1A6, 1A7, 1A8, 1A9, 1A10, 2B4, 2B7, 2B15, and 2B17.
(§2) 4-MU, a nonspecific probe substrate for all the UGT isoforms, was employed to investigate the inhibition of MEF and NIR towards the activity of UGT isoforms. The incubation and analytical methods have been previously described. […] MEF and NIR were dissolved in the DMSO to make a stock solution of 20 mM, and various concentrations of working solutions were prepared through dilution with DMSO. 4-MU was used as a non-selective substrate of UGTs. There was a 5-min pre-incubation step at 37 °C before the reaction was initiated by the addition of UDPGA. 4-MU and inhibitors were previously dissolved in DMSO, and the total concentration of DMSO was 1%. The reactions were continued at 37 °C for 120 min for UGT1A1, UGT1A3, UGT1A10, UGT2B4, UGT2B7, UGT2B15 and UGT2B17, 30 min for UGT1A6, UGT1A7, UGT1A8, and UGT1A9, respectively. Reactions were terminated by the addition of 100 μL acetonitrile with 7-hydroxycoumarin (100 μM) as internal standard. The incubation mixtures were then centrifuged at 12,000 r/min for 10 min. 2 μL supernatant was injected into the UPLC system for analysis. An ACQUITY UPLC System (Waters, Milford, MA, USA) equipped with UV detector was used to analyze the samples, and the separation of all the compounds were carried out using a ACQUITY UPLC® BEH C18 (2.1 × 100 mm, 1.7 μm Waters) at a flow rate of 0.2 mL/min and UV detector at 316 nm. The mobile phase was consisted of ultrapure water containing 0.5% formic acid (A) and acetonitrile (B). The following gradient condition was used: 0–3.5 min, 10–65% B; 3.5–4.0 min, 65% B; 4.0–9.0 min, 10% B. To calculate the standard curve 0.1–100 μM of 4-MUG was used through drawing the peak area ration of 4-MUG/internal standard towards the concentration range of 4-MUG. The curve was linear over this concentration range, with an r^2 value > 0.99.
(§3) The inhibition type and Kinetics were determined for the inhibition of NTR towards UGT1A3, UGT1A7 and UGT1A9. The glucuronidation velocity of 4-MU was determined at multiple concentrations of 4-MU and NTR. Dixon and Lineweaver–Burk plots were employed to determine the inhibition type, and the second plot of the slopes from the Lineweaver–Burk plot versus the compound concentrations was utilized to calculate the Ki value. The determination of IC50 was calculated using Probit analysis in SPSS11.5 (SPSS, Chicago, IL, USA). The Student’s t-test was adopted at a significance level of p < 0.05 to determine statistically significant differences among experimental groups.

UGT2B4 = target: T2, UGT2B4 (Homo sapiens, UniProt P06133); assay: as above; assay type: biochemical; settings: pH 7.4, probe 4-methylumbelliferone (4-MU), 1000 μM, 100 μM compound, 4-MU probe substrate, negative = activation
T2 construct: purchased BD Gentest Corp. (Woburn, MA, USA); host or cells: baculovirus-infected insect cells
T2 sequence (P06133 24-528): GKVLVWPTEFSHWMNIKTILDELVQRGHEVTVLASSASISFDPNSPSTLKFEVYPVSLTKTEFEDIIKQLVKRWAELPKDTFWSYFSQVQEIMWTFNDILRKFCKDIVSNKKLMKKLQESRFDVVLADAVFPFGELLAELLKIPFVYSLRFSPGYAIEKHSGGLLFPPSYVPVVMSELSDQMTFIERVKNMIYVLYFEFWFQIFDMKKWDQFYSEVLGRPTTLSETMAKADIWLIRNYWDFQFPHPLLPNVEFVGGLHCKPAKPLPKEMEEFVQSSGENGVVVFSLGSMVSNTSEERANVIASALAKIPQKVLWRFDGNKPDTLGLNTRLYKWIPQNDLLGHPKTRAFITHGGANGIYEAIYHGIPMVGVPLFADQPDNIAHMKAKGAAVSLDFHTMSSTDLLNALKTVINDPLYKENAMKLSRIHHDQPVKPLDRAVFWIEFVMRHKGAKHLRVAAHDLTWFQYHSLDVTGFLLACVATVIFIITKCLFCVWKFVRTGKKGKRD
Description: as §1, §2, §3

Row | inhibition at 120 min, 100 µM (UGT2B7) | inhibition at 120 min, 100 µM (UGT2B4) | SMILES
1 | -11.2% | -61.9% | O=c1c2cc(O)c(O)cc2oc2cc(O)c([C@@H]3O[C@H](CO)[C@@H](O)[C@H](O)[C@H]3O)c(O)c12 [MGF, 1,3,6,7-tetrahydroxyxanthone-C-2-β-D-glucoside]
2 | 31.8% | -5.5% | O=c1c2cc(O)c(O)cc2oc2cc(O)cc(O)c12 [NTR, 1,3,6,7-tetrahydroxyxanthone]
